Among the data in patent US11912694B1, “2-(benzo[d]oxazol-2-yl)-N′-(2-(5-(4-chlorophenyl)-1,3,4-oxadiazol-2-ylthio)acetoxy)acetimidamide as an antimicrobial compound” (KING FAISAL UNIVERSITY, priority 2023, dated 2024) are inhibition zone and melting point values, retold here.

As usually defined, the melting point is the temperature, or range, at which the solid turns liquid.

Data set [1] relates to Escherichia coli. Kind of data set: Agar plate disc-diffusion, antibacterial, Escherichia coli. It is filed as cell-based. The note with it: nutrient agar, 37° C., 48 hours. How it is done: (§1) The agar plate disc-diffusion method was applied. Sterilized filter papers (6 mm in diameter) were wetted with 10 μL of a solution of 2-(benzo[d]oxazol-2-yl)-N′-(2-(5-(4-chlorophenyl)-1,3,4-oxadiazol-2-ylthio)acetoxy)acetimidamide (3) to be tested, […], and the discs were allowed to air dry. The discs were then placed onto the surface of agar plates (nutrient agar for bacteria and Sabouraud's dextrose agar for fungi) seeded with the test organism. Each plate contained 15 mL of the agar medium, previously seeded with 0.2 mL of the broth culture of each organism pregrown for 18 hours. The plates were incubated at 37° C. for 48 hours and 72 hours for fungi. The inhibition zones were measured in mm. Discs impregnated with DMSO were used as a control, and their inhibition zone was subtracted from the tested compound's actual inhibition zone.
(In general: A growth-free zone around the sample is the usual read-out of agar diffusion tests.)

Data set [2] relates to Chrysosporium keratinophilum. Kind of data set: Agar plate disc-diffusion, antifungal, Chrysosporium keratinophilum. It is filed as cell-based. The note with it: Sabouraud's dextrose agar, 37° C., 72 hours. As to the method: as §1
For data set [3], the system named is Pseudomonas aeruginosa. Kind of data set: Agar plate disc-diffusion, antibacterial, Pseudomonas aeruginosa. The note with it: nutrient agar, 37° C., 48 hours. The format is cell-based. How it is done: as §1
Data set [4] concerns Aspergillus flavus. Kind of data set: Agar plate disc-diffusion, antifungal, Aspergillus flavus. It is filed as cell-based. The settings on record: Sabouraud's dextrose agar, 37° C., 72 hours. How it is done: as §1
Data set [5] deals with Staphylococcus aureus. Kind of data set: Agar plate disc-diffusion, antibacterial, Staphylococcus aureus. It is filed as cell-based. The settings on record: nutrient agar, 37° C., 48 hours. How it is done: as §1
The subject of data set [6] is Bacillus cereus. The experiment in a line: Agar plate disc-diffusion, antibacterial, Bacillus cereus. The settings on record: nutrient agar, 37° C., 48 hours. The format is cell-based. How it is done: as §1
Where [7] appears, read: A = concentration of comp. = 10,000 μg/mL.
[8] abbreviates: B = concentration of comp. = 30,000 μL.
Where [9] appears, read: C = concentration of comp. = 50,000 μL.
The mark [10] stands for this setting: A = concentration of comp. = 10 mg/mL.
Where [11] appears, read: A = concentration of comp. = 10,000 μL.

`O=C(O)c1cn(C2CC2)c2cc(N3CCNCC3)c(F)cc2c1=O` [Cip., ciprofloxacin, reference compound]: the inhibition zone in data set [1] (setting [7]) is 30 mm; in data set [1] (setting [8]), 39 mm; in data set [1] (setting [9]) it was 60 mm; in data set [2] (setting [10]) it was 29 mm; in data set [2] (setting [8]) it was 30 mm; in data set [2] (setting [9]) it was 53 mm. Also, the inhibition zone is 29 mm in data set [3] (setting [7]); 30 mm in data set [3] (setting [8]); 53 mm in data set [3] (setting [9]); 29 mm in data set [4] (setting [11]); 30 mm in data set [4] (setting [8]); 42 mm in data set [4] (setting [9]). Further, the inhibition zone in data set [5] (setting [11]) was determined as 43 mm; in data set [5] (setting [8]) it was 44 mm; in data set [5] (setting [9]), 53 mm; in data set [6] (setting [11]) it was 29 mm; in data set [6] (setting [8]), 30 mm; in data set [6] (setting [9]), 42 mm.

Turning to `N/C(Cc1nc2ccccc2o1)=N\OC(=O)CSc1nnc(-c2ccc(Cl)cc2)o1` [Compound 3, 2-(benzo[d]oxazol-2-yl)-N′-(2-(5-(4-chlorophenyl)-1,3,4-oxadiazol-2-ylthio)acetoxy)acetimidamide], the melting point fell in the range of 162 to 163 °C. For the same molecule, the inhibition zone in data set [1] (setting [7]) is recorded as 28 mm. The molecule further showed an inhibition zone in data set [1] (setting [8]) of 37 mm. The inhibition zone in data set [1] (setting [9]) was found to be 49 mm. Moreover, the inhibition zone in data set [2] (setting [10]) turned out to be 28 mm. Moreover, the inhibition zone in data set [2] (setting [8]) was determined as 35 mm. In data set [2] (setting [9]), this molecule registered an inhibition zone of 47 mm. Moreover, the inhibition zone in data set [3] (setting [7]) was found to be 24 mm. In data set [3] (setting [8]), this molecule showed an inhibition zone of 29 mm. In addition, the inhibition zone in data set [3] (setting [9]) was determined as 36 mm. The inhibition zone in data set [4] (setting [11]) came out at 25 mm. Besides, the inhibition zone in data set [4] (setting [8]) is recorded as 30 mm. The molecule also yielded an inhibition zone in data set [4] (setting [9]) of 41 mm. Besides, the inhibition zone in data set [5] (setting [11]) is listed as 27 mm. Besides, the inhibition zone in data set [5] (setting [8]) was found to be 35 mm. In data set [5] (setting [9]), the inhibition zone turned out to be 42 mm. The molecule further gave an inhibition zone in data set [6] (setting [11]) of 27 mm. The molecule also yielded an inhibition zone in data set [6] (setting [8]) of 30 mm. For the same molecule, the inhibition zone in data set [6] (setting [9]) turned out to be 41 mm.
